Measured values reported in patent US20210161866A1, “DRUG FOR USE IN COMBINATION, AND USE THEREOF FOR PREPARING DRUGS FOR TREATMENT OF HIGH-GRADE BRAIN TUMORS IN RESPONSE TO INEFFECTIVE STANDARD TREATMENT FOR POSTOPERATIVE RECURRENCE” (SICHUAN JIUZHANG BIOLOGICAL SCIENCE AND TECHNOLOGY CO., LTD., priority 2018, published 2021).

How the values were obtained:
[1] = tested on: high-grade anaplastic astrocytoma that relapsed after surgery and on which the standard therapy failed; test: Tumor inhibition rate in animal model of high-grade anaplastic astrocytoma; assay type: in vivo, rats; conditions: for Tumor inhibition rate (%) / Tumor weight: 5th day after drug-withdrawal
Procedure: (§1) 1.1 Cell culture: The pathological tissue for cell culture was a tissue sample removed surgically from high-grade brain tumor that relapsed after surgery and on which the standard therapy failed. Glioblasts cells, high-grade anaplastic astrocytoma cells, high-grade anaplastic oligodendrocytoma cells, high-grade anaplastic oligoastrocytoma cells, and brain tumor cells with unclear pathological types, obtained by separation and culture of pathological tissue, were seeded in DMEM complete culture medium containing 10% FBS and routinely incubated in a 37° C., 5% carbon dioxide incubator under saturated humidity. TMZ was dissolved in DMSO solution, and the mass concentration of the stock solution was 100 mg/mL. Tumor cells in the logarithmic growth phase were diluted to obtain a cell suspension at 1×10^5 cells/mL, and the initial inducer dose 0.25 μg/mL of TMZ was added after routinely culturing for 24 h. The culture was continued for 15-20 days, and after stabilization of cell growth, the induced concentration of the drug was doubled, then the cells were further cultured for 15-20 d at each induced concentration. Thus, the final concentration of TMZ was 16.00 μg/mL, and various pathological types of cell suspensions were obtained.
The cell suspension obtained in step 1 was inoculated into rats in situ, to prepare animal models of high-grade anaplastic astrocytoma that relapsed after surgery and on which the standard therapy failed, and the animals were divided into test groups listed in the following table. […] On the 5th day after drug-withdrawal, the size of the in situ tumor in the rat brain was observed, and the tumor was weighed. The tumor inhibition rate was calculated.

[2] = tested on: brain tumor with unclear pathological types that relapsed after surgery and on which the standard therapy failed; test: Tumor inhibition rate in animal model of brain tumors with unclear pathological types; assay type: in vivo, rats; conditions: for Tumor inhibition rate (%) / Tumor weight: 5th day after drug-withdrawal
Procedure: as §1
The cell suspension obtained in step 1 was inoculated into rats in situ, to prepare animal models of brain tumor with unclear pathological types that relapsed after surgery and on which the standard therapy failed, and the animals were divided into test groups listed in the following table. […] On the 5th day after drug-withdrawal, the size of the in situ tumor in the rat brain was observed, and the tumor was weighed. The tumor inhibition rate was calculated.

[3] = tested on: high-grade anaplastic oligodendrocytoma that relapsed after surgery and on which the standard therapy failed; test: Tumor inhibition rate in animal model of high-grade anaplastic oligodendrocytoma; assay type: in vivo, rats; conditions: for Tumor inhibition rate (%) / Tumor weight: 5th day after drug-withdrawal
Procedure: as §1
The cell suspension obtained in step 1 was inoculated into rats in situ, to prepare animal models of high-grade anaplastic oligodendrocytoma that relapsed after surgery and on which the standard therapy failed, and the animals were divided into test groups listed in the following table. […] The tumor inhibition rate was calculated.

[4] = tested on: high-grade anaplastic oligoastrocytoma that relapsed after surgery and on which the standard therapy failed; test: Tumor inhibition rate in animal model of high-grade anaplastic oligoastrocytoma; assay type: in vivo, rats; conditions: for Tumor inhibition rate (%) / Tumor weight: 5th day after drug-withdrawal
Procedure: as §1
The cell suspension obtained in step 1 was inoculated into rats in situ, to prepare animal models of high-grade anaplastic oligoastrocytoma that relapsed after surgery and on which the standard therapy failed, and the animals were divided into test groups listed in the following table. […] The tumor inhibition rate was calculated.

[5] = tested on: glioblastoma that relapsed after surgery and on which the standard therapy failed; test: Tumor inhibition rate in animal model of glioblastoma; assay type: in vivo, rats; conditions: for Tumor inhibition rate (%) / Tumor weight: 5th day after drug-withdrawal
Procedure: as §1
The cell suspension obtained in step 1 was inoculated into rats in situ, to prepare animal models of glioblastoma that relapsed after surgery and on which the standard therapy failed, and the animals were divided into test groups listed in the following table. […] The tumor inhibition rate was calculated.

[6] = tested on: high-grade glioma relapsed after failure of standard treatment; test: Clinical trial of chlorogenic acid for injection, effectiveness by RANO standard and survival; assay type: in vivo, patients
Procedure: A total of 23 subjects completed the test in this trial, including 5 patients with grade III gliomas and 18 patients with grade IV gliomas. […] The subjects included in this trial were all patients with high-grade glioma who relapsed after surgery and didn't response to the standard therapy. The standard treatment was chemotherapy and radiotherapy. […] Ineffective means tumor progression. […] The effectiveness evaluation was performed according to the RANO standard, and the specific RANO standards are as follows: [table] […] A total of 26 subjects were enrolled in the trial, 3 cases were released early, and 23 cases can be counted: […]

[7] = dose 35 mg/kg i.p. daily 10 days

Cn1nnc2c(C(N)=O)ncn2c1=O [temozolomide]
Tumor inhibition rate (%) ([1]; dose 10 mg/kg oral 5 days): 13.3%
Tumor weight ([1]; dose 10 mg/kg oral 5 days): 1.95 ± 0.18
Tumor inhibition rate (%) ([1]; dose 20 mg/kg oral 5 days): 20.9%
Tumor weight ([1]; dose 20 mg/kg oral 5 days): 1.78 ± 0.11
Tumor inhibition rate (%) ([2]; dose 10 mg/kg oral 5 days): 16.0%
Tumor weight ([2]; dose 10 mg/kg oral 5 days): 1.83 ± 0.13
Tumor inhibition rate (%) ([2]; dose 20 mg/kg oral 5 days): 25.7%
Tumor weight ([2]; dose 20 mg/kg oral 5 days): 1.62 ± 0.14
Tumor inhibition rate (%) ([3]; dose 10 mg/kg oral 5 days): 15.5%
Tumor weight ([3]; dose 10 mg/kg oral 5 days): 1.80 ± 0.15
Tumor inhibition rate (%) ([3]; dose 20 mg/kg oral 5 days): 22.5%
Tumor weight ([3]; dose 20 mg/kg oral 5 days): 1.65 ± 0.14
Tumor inhibition rate (%) ([4]; dose 10 mg/kg oral 5 days): 13.1%
Tumor weight ([4]; dose 10 mg/kg oral 5 days): 1.72 ± 0.14
Tumor inhibition rate (%) ([4]; dose 20 mg/kg oral 5 days): 20.2%
Tumor weight ([4]; dose 20 mg/kg oral 5 days): 1.58 ± 0.12
Tumor inhibition rate (%) ([5]; dose 10 mg/kg oral 5 days): 14.6%
Tumor weight ([5]; dose 10 mg/kg oral 5 days): 1.75 ± 0.14
Tumor inhibition rate (%) ([5]; dose 20 mg/kg oral 5 days): 24.1%
Tumor weight ([5]; dose 20 mg/kg oral 5 days): 1.54 ± 0.10

O=C(/C=C/c1ccc(O)c(O)c1)O[C@@H]1C[C@](O)(C(=O)O)C[C@@H](O)[C@H]1O [Chlorogenic acid, chlorogenic acid]
response rate ([6]; 9 survival subjects with grade IV glioblastoma, 1 cycle): 88.9%
response rate ([6]; nine dead subjects with grade IV glioma, one cycle): 11.1%
Tumor inhibition rate (%) [1, 7]: 50.2%
Tumor weight [1, 7]: 1.12 ± 0.10
therapeutic effect in words ([1]; summary of the anaplastic astrocytoma model table): significant inhibitory effect
Tumor inhibition rate (%) [2, 7]: 44.5%
Tumor weight [2, 7]: 1.21 ± 0.11
therapeutic effect in words ([2]; summary of the table for brain tumors with unclear pathological types): significant inhibitory effect
Tumor inhibition rate (%) [3, 7]: 52.6%
therapeutic effect in words ([3]; summary of the anaplastic oligodendrocytoma model table): significant inhibitory effect
Tumor inhibition rate (%) [4, 7]: 47.0%
therapeutic effect in words ([4]; summary of the anaplastic oligoastrocytoma model table): significant inhibitory effect
Tumor inhibition rate (%) [5, 7]: 52.2%
therapeutic effect in words ([5]; summary of the glioblastoma model table): significant inhibitory effect
